Laboratory results reported in the NIST ThermoML archive (doi:10.1016/j.jct.2009.06.016).
Where “and” joins values, the source holds several entries; their conditions need not be identical. Equal values may be shown once.

Assay: xn = mol fraction of the nth substance listed
Details: 101 kPa, Liquid, Vibrating tube method

CCCOCC(C)O (stereo not drawn) [1-propoxy-2-propanol] + O
mass density
Details | 283.15 K | 288.15 K | 293.15 K | 298.15 K | 303.15 K
x1 = 0.001639 | 999.31 kg/m3 | 998.703 kg/m3 | 997.77 kg/m3 | 996.607 kg/m3 | 995.166 kg/m3
x1 = 0.003265 | 999.009 kg/m3 | 998.36 kg/m3 | 997.378 kg/m3 | 996.203 kg/m3 | 994.729 kg/m3
x1 = 0.01049 | 998.189 kg/m3 | 997.309 kg/m3 | 996.156 kg/m3 | 994.754 kg/m3 | 993.101 kg/m3
x1 = 0.01741 | 997.871 kg/m3 | 996.708 kg/m3 | 995.295 kg/m3 | 993.639 kg/m3 | 991.738 kg/m3
x1 = 0.02413 | 997.617 kg/m3 | 996.172 kg/m3 | 994.434 kg/m3 | 992.449 kg/m3 | 990.242 kg/m3
x1 = 0.02492 | 997.584 kg/m3 | 996.099 kg/m3 | 994.315 kg/m3 | 992.281 kg/m3 | 990.035 kg/m3
x1 = 0.03341 | 997.009 kg/m3 | 994.916 kg/m3 | 992.599 kg/m3 | 990.099 kg/m3 | 987.376 kg/m3
x1 = 0.0411 | 995.626 kg/m3 | 993.032 kg/m3 | 990.295 kg/m3 | 987.401 kg/m3 | 984.348 kg/m3
x1 = 0.04904 | 993.374 kg/m3 | 990.531 kg/m3 | 987.469 kg/m3 | 984.302 kg/m3 | 981.013 kg/m3
x1 = 0.05896 | 990.231 kg/m3 | 987.111 kg/m3 | 983.811 kg/m3 | 980.443 kg/m3 | 976.913 kg/m3
x1 = 0.06919 | 987.019 kg/m3 | 983.629 kg/m3 | 980.171 kg/m3 | 976.629 kg/m3 | 972.832 kg/m3
x1 = 0.07722 | 984.1 kg/m3 | 980.908 kg/m3 | 977.347 kg/m3 | 973.676 kg/m3 | 969.873 kg/m3
x1 = 0.08896 | 980.8 kg/m3 | 977.203 kg/m3 | 973.523 kg/m3 | 969.756 kg/m3 | 965.792 kg/m3
x1 = 0.09833 | 977.885 kg/m3 | 974.328 kg/m3 | 970.577 kg/m3 | 966.718 kg/m3 | 962.723 kg/m3
x1 = 0.1083 | 975.142 kg/m3 | 971.439 kg/m3 | 967.62 kg/m3 | 963.724 kg/m3 | 959.684 kg/m3
x1 = 0.1182 | 972.498 kg/m3 | 968.762 kg/m3 | 964.864 kg/m3 | 960.927 kg/m3 | 956.826 kg/m3
x1 = 0.1249 | 970.842 kg/m3 | 967.03 kg/m3 | 963.131 kg/m3 | 959.154 kg/m3 | 955.036 kg/m3
x1 = 0.1283 | 969.927 kg/m3 | 966.142 kg/m3 | 962.218 kg/m3 | 958.25 kg/m3 | 954.135 kg/m3
x1 = 0.1365 | 967.946 kg/m3 | 964.14 kg/m3 | 960.182 kg/m3 | 956.19 kg/m3 | 952.054 kg/m3
x1 = 0.1475 | 965.216 kg/m3 | 961.573 kg/m3 | 957.6 kg/m3 | 953.581 kg/m3 | 949.414 kg/m3
x1 = 0.1677 | 961.137 kg/m3 | 957.197 kg/m3 | 953.147 kg/m3 | 949.056 kg/m3 | 944.898 kg/m3
x1 = 0.1955 | 955.28 kg/m3 | 951.825 kg/m3 | 947.746 kg/m3 | 943.61 kg/m3 | 939.419 kg/m3
x1 = 0.2281 | 950.34 kg/m3 | 946.219 kg/m3 | 942.051 kg/m3 | 937.893 kg/m3 | 933.693 kg/m3
x1 = 0.2743 | 943.61 kg/m3 | 939.47 kg/m3 | 935.34 kg/m3 | 931.11 kg/m3 | 926.81 kg/m3
x1 = 0.3208 | 937.609 kg/m3 | 933.429 kg/m3 | 929.158 kg/m3 | 924.917 kg/m3 | 920.58 kg/m3
x1 = 0.3483 | 934.321 kg/m3 | 930.247 kg/m3 | 926.15 kg/m3 | 921.878 kg/m3 | 917.532 kg/m3
x1 = 0.3738 | 931.91 kg/m3 | 927.69 kg/m3 | 923.45 kg/m3 | 919.12 kg/m3 | 914.74 kg/m3
x1 = 0.4214 | 927.214 kg/m3 | 922.877 kg/m3 | 918.572 kg/m3 | 914.335 kg/m3 | 909.931 kg/m3
x1 = 0.4787 | 922.45 kg/m3 | 918.2 kg/m3 | 913.81 kg/m3 | 909.35 kg/m3 | 904.97 kg/m3
x1 = 0.5257 | 918.715 kg/m3 | 914.413 kg/m3 | 910.011 kg/m3 | 905.586 kg/m3 | 901.122 kg/m3
x1 = 0.548 | 916.854 kg/m3 | 912.761 kg/m3 | 908.503 kg/m3 | 904.085 kg/m3 | 899.604 kg/m3
x1 = 0.5771 | 915.29 kg/m3 | 910.9 kg/m3 | 906.52 kg/m3 | 902.07 kg/m3 | 897.57 kg/m3
x1 = 0.5977 | 913.887 kg/m3 | 909.422 kg/m3 | 905.093 kg/m3 | 900.499 kg/m3 | 896.129 kg/m3
x1 = 0.6247 | 912.186 kg/m3 | 907.847 kg/m3 | 903.425 kg/m3 | 898.961 kg/m3 | 894.432 kg/m3
x1 = 0.6264 | – | 907.647 kg/m3 | 903.218 kg/m3 | 898.785 kg/m3 | 894.261 kg/m3
x1 = 0.6385 | 911.37 kg/m3 | 906.945 kg/m3 | 902.498 kg/m3 | 897.87 kg/m3 | 893.542 kg/m3
x1 = 0.672 | 909.401 kg/m3 | 905.017 kg/m3 | 900.577 kg/m3 | 896.108 kg/m3 | 891.567 kg/m3
x1 = 0.6758 | – | 904.871 kg/m3 | 900.301 kg/m3 | 895.81 kg/m3 | 891.293 kg/m3
x1 = 0.6793 | 909.018 kg/m3 | 904.571 kg/m3 | 900.121 kg/m3 | 895.632 kg/m3 | 891.142 kg/m3
x1 = 0.7192 | 906.894 kg/m3 | 902.407 kg/m3 | 897.954 kg/m3 | 893.432 kg/m3 | 888.909 kg/m3
x1 = 0.7272 | 906.317 kg/m3 | 901.907 kg/m3 | 897.467 kg/m3 | 892.945 kg/m3 | 888.391 kg/m3
x1 = 0.7448 | 905.495 kg/m3 | 901.061 kg/m3 | 896.614 kg/m3 | 892.14 kg/m3 | 887.56 kg/m3
x1 = 0.7589 | 904.809 kg/m3 | 900.364 kg/m3 | 895.887 kg/m3 | 891.371 kg/m3 | 886.848 kg/m3
x1 = 0.7682 | 903.977 kg/m3 | 899.934 kg/m3 | 895.456 kg/m3 | 890.967 kg/m3 | 886.382 kg/m3
x1 = 0.7858 | 903.51 kg/m3 | 899.08 kg/m3 | 894.6 kg/m3 | 890.07 kg/m3 | 885.47 kg/m3
x1 = 0.7981 | 902.909 kg/m3 | 898.495 kg/m3 | 894.001 kg/m3 | 889.483 kg/m3 | 884.923 kg/m3
x1 = 0.8224 | 901.51 kg/m3 | 897.287 kg/m3 | 892.828 kg/m3 | 888.311 kg/m3 | 883.721 kg/m3
x1 = 0.8398 | 901.029 kg/m3 | 896.637 kg/m3 | 891.636 kg/m3 | 887.602 kg/m3 | 882.984 kg/m3
x1 = 0.8588 | 900.07 kg/m3 | 895.641 kg/m3 | 891.133 kg/m3 | 886.589 kg/m3 | 882.007 kg/m3
x1 = 0.8792 | 898.865 kg/m3 | 894.921 kg/m3 | 890.346 kg/m3 | 885.821 kg/m3 | 881.196 kg/m3
x1 = 0.8796 | 899.334 kg/m3 | 894.851 kg/m3 | 890.337 kg/m3 | 885.871 kg/m3 | 881.204 kg/m3
x1 = 0.8993 | 898.371 kg/m3 | 893.936 kg/m3 | 889.399 kg/m3 | 884.854 kg/m3 | 880.259 kg/m3
x1 = 0.9197 | 897.715 kg/m3 and 897.195 kg/m3 | 893.212 kg/m3 and 893.204 kg/m3 | 888.659 kg/m3 and 888.679 kg/m3 | 884.155 kg/m3 and 884.109 kg/m3 | 879.548 kg/m3 and 879.479 kg/m3
x1 = 0.9388 | 896.775 kg/m3 | 892.326 kg/m3 | 887.803 kg/m3 | 883.236 kg/m3 | 878.623 kg/m3
x1 = 0.9486 | 896.411 kg/m3 | 891.949 kg/m3 | 887.413 kg/m3 | 882.854 kg/m3 | 878.219 kg/m3
x1 = 0.9609 | 895.933 kg/m3 | 891.451 kg/m3 | 886.918 kg/m3 | 882.36 kg/m3 | 877.745 kg/m3
x1 = 0.9628 | 896.008 kg/m3 | 891.604 kg/m3 | 887.059 kg/m3 | 882.424 kg/m3 | 877.865 kg/m3
x1 = 0.9716 | 895.539 kg/m3 | 891.059 kg/m3 | 886.524 kg/m3 | 881.962 kg/m3 | 877.362 kg/m3
x1 = 0.9798 | 895.261 kg/m3 | 890.77 kg/m3 | 886.193 kg/m3 | 881.641 kg/m3 | 876.998 kg/m3
x1 = 0.9818 | 895.15 kg/m3 | 890.664 kg/m3 | 886.123 kg/m3 | 881.551 kg/m3 | 876.955 kg/m3
x1 = 0.9919 | 894.781 kg/m3 | 890.294 kg/m3 | 885.746 kg/m3 | 881.183 kg/m3 | 876.546 kg/m3
x1 = 1 | 894.462 kg/m3 | 889.963 kg/m3 | 885.456 kg/m3 | 880.837 kg/m3 | 876.279 kg/m3
